Active and inactive are the calls of the source. A value given as a limit tells only on which side of the number the result lay.

Assay [1] is described as follows: HIV-1 AD8 envelope cell-cell fusion blockers – cherry-pick, dose response (AID 652062).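 Also: luciferase signal from cell-cell fusion driven by HIV-1 clade B AD8 Env; potency is for inhibitors of fusion seen as a drop in luminescence.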 Format: functional, cell-based.
Assay [2] is described as follows: blockers of HIV-1 ZM109 envelope-driven cell-cell fusion – HeLa effector, CEM target cells, luciferase, cherry-pick, dose response (AID 652058).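 Also: luciferase signal from HIV-1 Env mediated cell-cell fusion of effector and target cells.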 Type of assay: functional, cell-based.
The nature of assay [3]: blockers of HIV-1 envelope-mediated cell-cell fusion – cherry-pick, dose response (AID 652057). Format: functional, cell-based.
In the next assay the target is Major prion protein (Homo sapiens, UniProt P04156). Format: functional, cell-based.
Assay [4] can be described thus: antiviral protection against BTV-induced cell death – arbovirus, BSR cells, confirmation (AID 1250).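 Also: protection from viral cytopathic effect measured as cell viability by ATP luminescence.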 Format: functional.
A short description of assay [5]: growth inhibition of PfATP4-mutant resistant parasites – NITD609-resistant line, SYBR Green, dry powder, dose response (AID 1159571).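 Also: parasites synchronized at ring stage by sorbitol before testing.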 Format: functional, cell-based.
Assay [6] can be described thus: growth inhibition of yeast DHODH-expressing 3D7 parasites – SYBR Green, dry powder samples, dose response (AID 1159570).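 Also: parasite growth measured after 72 hours of compound exposure.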 Type of assay: functional, cell-based.
Assay [7] can be described thus: toxicity to human HepG2 hepatoma cells – cell-based, plate reader, dry powder samples, cytotoxicity control, dose response (AID 1159569).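 Also: inhibitor potency with signal falling toward the positive control level.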 Format: functional.
Assay [8] in a line: Dd2 malaria parasite growth inhibition potency – SYBR Green, dry powder samples, dose response (AID 1159566).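 Also: potency for growth inhibition with lower SYBR green DNA signal.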 Format: functional, cell-based.
Assay [9] can be described thus: P. falciparum Dd2 growth inhibitors, dose response, SYBR Green, cherry-picked samples (AID 1159567). Type of assay: functional, cell-based.
Assay [10] can be described thus: off-target signal loss in HeLa-CEM21 co-culture – HeLa F-luc CTL cells, cherry-picked, counter-screen for HIV-1 Env fusion inhibitor project, dose response (AID 652040).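 Also: potency for signal decrease marking cytotoxic or nonspecific inhibition.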 Format: functional, cell-based.
The subject of assay [11] is Streptococcus sp. 'group A'. The assay is described as follows: Streptococcus pyogenes SK(-)GAS viability under kanamycin – luminescence, BacTiterGlo, confirmation, counter-screen for streptokinase expression inhibitor project, dose response (AID 1900). Type of assay: functional, organism-based. Background: The purpose of a counterscreen is to sort out artefacts and off-target activity.

The target of assay [12] is T1, Type-1 angiotensin II receptor (Homo sapiens, UniProt P30556).
T1 sequence (P30556 whole entry): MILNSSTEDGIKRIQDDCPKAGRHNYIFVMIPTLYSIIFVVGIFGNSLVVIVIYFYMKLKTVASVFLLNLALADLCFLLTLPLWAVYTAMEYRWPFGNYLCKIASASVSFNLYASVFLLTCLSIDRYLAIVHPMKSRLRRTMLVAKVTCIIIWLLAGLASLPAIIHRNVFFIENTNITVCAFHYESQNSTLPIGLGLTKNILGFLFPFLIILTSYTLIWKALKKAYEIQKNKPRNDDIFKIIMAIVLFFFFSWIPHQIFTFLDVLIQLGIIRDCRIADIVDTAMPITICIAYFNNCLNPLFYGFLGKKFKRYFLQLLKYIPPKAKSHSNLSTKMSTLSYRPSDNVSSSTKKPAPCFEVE
In words: antagonism of angiotensin II type 1 receptor – cell-based, uHTS hits, selectivity assay for APJ receptor antagonist project, dose response (AID 463214).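 Also: antagonist potency against angiotensin II stimulated AT1 response.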 Format: functional.

The target of the next assay is Beta-galactosidase (Escherichia coli, UniProt Q8VNN2). The assay is described as follows: PubChem AID 485352. Type of assay: functional.
In the next assay the test system is Streptococcus. The assay is described as follows: GAS UMAA2166 growth inhibition – luminescence, BacTiterGlo, counter-screen for streptokinase expression inhibitor project, dose response (AID 1915).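 Also: potency for reduction of bacterial viability or growth.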 Format: functional, organism-based.
The next assay concerns the target T2, Streptokinase A (Streptococcus pyogenes serotype M1, UniProt P10520).
T2 sequence (P10520 whole entry): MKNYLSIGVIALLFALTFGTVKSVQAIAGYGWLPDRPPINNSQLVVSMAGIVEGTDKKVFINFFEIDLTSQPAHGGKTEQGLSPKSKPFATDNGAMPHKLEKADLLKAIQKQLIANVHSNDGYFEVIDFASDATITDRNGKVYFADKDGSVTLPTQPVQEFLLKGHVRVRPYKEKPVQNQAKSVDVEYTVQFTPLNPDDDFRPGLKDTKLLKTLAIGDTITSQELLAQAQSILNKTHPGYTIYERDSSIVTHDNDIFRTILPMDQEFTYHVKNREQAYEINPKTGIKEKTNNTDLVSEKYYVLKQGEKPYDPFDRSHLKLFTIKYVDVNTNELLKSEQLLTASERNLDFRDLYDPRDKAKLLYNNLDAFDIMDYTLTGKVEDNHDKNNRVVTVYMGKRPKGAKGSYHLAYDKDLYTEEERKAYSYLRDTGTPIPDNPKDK
In words: viability-normalized secreted streptokinase activity reduction – plasminogen activation absorbance, OD405, dose response (AID 1914).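 Also: secreted streptokinase activity via plasminogen activation per viability signal from cell pellet.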 Format: functional, Streptococcus pyogenes M1 GAS.

A further assay has as its target T3, Leucine aminopeptidase (Plasmodium falciparum 3D7, UniProt Q8IL11).
T3 sequence (Q8IL11 whole entry): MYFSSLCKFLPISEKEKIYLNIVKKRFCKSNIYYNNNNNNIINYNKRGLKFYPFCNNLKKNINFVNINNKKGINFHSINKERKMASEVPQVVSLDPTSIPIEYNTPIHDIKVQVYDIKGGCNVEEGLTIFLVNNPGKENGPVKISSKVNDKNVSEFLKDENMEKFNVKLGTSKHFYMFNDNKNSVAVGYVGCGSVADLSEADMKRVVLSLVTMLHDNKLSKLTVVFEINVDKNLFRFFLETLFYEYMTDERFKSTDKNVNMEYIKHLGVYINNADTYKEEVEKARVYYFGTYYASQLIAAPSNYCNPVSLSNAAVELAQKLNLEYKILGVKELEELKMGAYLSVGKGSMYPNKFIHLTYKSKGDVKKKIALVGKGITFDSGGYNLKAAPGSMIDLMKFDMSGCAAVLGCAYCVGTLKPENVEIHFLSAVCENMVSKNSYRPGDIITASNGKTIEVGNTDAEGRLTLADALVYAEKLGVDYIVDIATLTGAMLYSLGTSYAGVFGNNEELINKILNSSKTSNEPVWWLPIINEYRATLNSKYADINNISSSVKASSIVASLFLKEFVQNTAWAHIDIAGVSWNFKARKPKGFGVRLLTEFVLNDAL
The assay is described as follows: P. falciparum M17LAP inhibitors, primary screen, biochemical, fluorogenic H-Leu-NHMec substrate, 1536-well (AID 1619). Format: functional.

Assay [13] is described as follows: reduction of Shn3 3'UTR-driven luciferase in osteoblasts – cell-based, Clone20 osteoblasts, firefly luciferase, cherry-picked, dose response (AID 624132).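 Also: firefly luciferase luminescence from reporter carrying the Shn3 3'UTR in osteoblasts.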 Type of assay: functional.
Assay [14] in a line: non-specific 3'UTR reporter inhibition in Clone20-Shn3RL – cell-based, Renilla luciferase, cherry-picked, counter-screen for Shn3 inhibitor project, dose response (AID 624133). Format: functional.
Assay [15] in a line: loss of viability in HepG2 cells – cell-based, CellTiter-Glo, cherry-picked, cytotoxicity control for Shn3 inhibitor project, dose response (AID 624134). Type of assay: functional. In general terms: In ATP-based viability assays light output follows the ATP content of the culture.

Turning to `COc1ccc(NC(=O)Nc2ccc3c(c2)C(=O)N([C@H](C)CO)C[C@H](C)[C@H](CN(C)Cc2ccncc2)OCCCC[C@H](C)O3)cc1`, the results for the AC50 in [1], in [2] and in [3] were 20.1 µM (active), 8.87 µM (active) and 13 µM (active), respectively.

As for `CCC1(C)Cc2ccccc2-c2nc(S)nc(O)c21` (stereo not given), the IC50 – broadly, the midpoint of a concentration-inhibition curve – in the assay “cells” is > 138 µM (inactive).

`Cc1sc2ncnc(Sc3ccccc3C(=O)O)c2c1C`: the results for the IC50 on Major prion protein and in the assay “cells” were 0.908 µM (active) and > 138 µM (inactive), respectively.

Regarding `COc1cccc(OC)c1C(=O)NC(C)C12CC3CC(CC(C3)C1)C2` (stereo not given), in assay [4], the IC50 is 22.7 µM (active).

Regarding `CO[C@@H]1CN(C)C(=O)c2ccc(NC(=O)Nc3ccc(C(F)(F)F)cc3)cc2OC[C@H](C)NC[C@H]1C`, the concentration at half-maximal activity (AC50) (in general, the concentration at which the activity in the assay is half-maximal) was 2.88 µM (active) in assay [5]; 2.96 µM (active) in [6]; 32.6 µM (active) in assay [7]; 1.51 µM (active) in assay [8]; 2.13 µM (active) in assay [9].

With `C[C@@H]1CN([C@H](C)CO)C(=O)c2cccc(NC(=O)c3ccc(-c4nccs4)cc3)c2O[C@H]1CN(C)Cc1ccc2c(c1)OCO2`, the concentration at half-maximal activity (AC50) is 3.44 µM (active) in assay [5]; 3.63 µM (active) in assay [6]; > 100 µM (inactive) in assay [7]; 3.02 µM (active) in assay [8]; 1.19 µM (active) in assay [9].

For the compound `COc1ccc([C@@H]2[C@@H]3C(=O)N(C(C)(C)C)C(=O)[C@@H]3[C@]3(CC(C)C)C(=O)N(c4ccc(C(F)(F)F)cc4)C(=O)N23)cc1`, the AC50 was 4.52 µM (active) in assay [1], 2.51 µM (active) in [2], 3.8 µM (active) in assay [10] and 1.6 µM (active) in assay [3].

Consider `Cc1ccc(C(=O)Nc2sc3c(c2C(=O)O)CCCCC3)o1`, for which the concentration for half-maximal inhibition (IC50) in assay [4] was 28.4 µM (active).

Regarding `Cc1ccc(C)c(NC(=S)N/N=C2/CCCCc3ccccc32)c1`, the EC50 (as a rule, the concentration at which the effect is half-maximal) in [11] was 0.956 µM (active); on Beta-galactosidase, > 40 µM (inactive); in the assay with Streptococcus it was > 150 µM (not active); at Streptokinase A, > 150 µM (not active). Besides, in assay [12], the IC50 is > 40 µM (not active).

For `CCOC(=O)CC(=O)CSc1nc(O)c2sc(=S)n(-c3ccc(OCC)cc3)c2n1`, the concentration for half-maximal inhibition (IC50) in assay [4] is 21.6 µM (active); at Leucine aminopeptidase, 26.4 µM (active).

In the case of `CCOC(=O)c1nn(-c2cccc(Cl)c2)c2nc(Nc3ccccc3)cc(=O)n12`, the half-inhibitory concentration (IC50) in assay [4] was 33 µM (active).

Regarding `CCC1(C)Cc2ccccc2-c2[nH]c(=S)[nH]c(=O)c21` (stereo not given), the concentration for half-maximal inhibition (IC50) on Major prion protein was 2.93 µM (active).

In the case of `CO[C@H]1CN(C)C(=O)c2cc(NC(=O)Nc3cccc(Cl)c3)ccc2OC[C@H](C)NC[C@H]1C`, the AC50 is 5.09 µM (active) in assay [5]; 3.37 µM (active) in assay [6]; 25 µM (active) in assay [7]; 3.03 µM (active) in [8]; 4.56 µM (active) in assay [9].

`Cc1cc(NC(=O)CSc2nc(-c3cccs3)nc3ccccc23)no1`: the 50% inhibitory concentration (IC50) on Major prion protein was 2.15 µM (active); in the assay “cells”, 53.6 µM (inactive).

For the compound `CCOc1ccc(C2C(C#N)=C(N)SC(N)=C2C#N)cc1OCC`, the values for the IC50 at Major prion protein and in the assay “cells” were 2.32 µM (active) and > 138 µM (inactive), respectively.

With `O=C(c1ccccc1)N1CCN(c2ncnc3sc4c(c23)CCC4)CC1`, the concentration at half-maximal activity (AC50) in [13] was 4.14 µM (active); in [14], 4.25 µM (active); in [15], 48 µM (active); in assay [2], 41.4 µM (active); in assay [3] it was 28.7 µM (active).

(Values after ChEMBL document CHEMBL1201862, “PubChem BioAssay data set” (2004).)
